From ChEMBL document CHEMBL1136306, “Design and synthesis of a new fluorescent probe for cytochrome P450 3A4 (CYP 3A4)” (Bioorg Med Chem Lett, 2003)

Biological target: Cytochrome P450 3A4 (Homo sapiens, UniProt P08684)
Sequence (P08684 whole entry): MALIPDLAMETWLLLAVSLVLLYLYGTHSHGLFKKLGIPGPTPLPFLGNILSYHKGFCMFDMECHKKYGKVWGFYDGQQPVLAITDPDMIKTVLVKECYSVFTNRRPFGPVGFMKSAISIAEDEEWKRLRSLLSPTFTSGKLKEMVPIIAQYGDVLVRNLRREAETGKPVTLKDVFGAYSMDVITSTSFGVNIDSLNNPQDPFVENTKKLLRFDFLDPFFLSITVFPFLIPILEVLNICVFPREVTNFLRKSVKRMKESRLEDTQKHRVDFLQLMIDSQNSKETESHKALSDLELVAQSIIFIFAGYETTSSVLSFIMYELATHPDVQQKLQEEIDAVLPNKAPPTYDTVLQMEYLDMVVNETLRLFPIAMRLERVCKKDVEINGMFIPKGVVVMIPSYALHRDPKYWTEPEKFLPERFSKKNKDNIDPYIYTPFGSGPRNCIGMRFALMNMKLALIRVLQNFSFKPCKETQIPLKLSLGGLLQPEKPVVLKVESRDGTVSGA

Row | SMILES | IC50 [µM]
1 | OC1N=C(c2ccccc2F)c2cc(Cl)ccc2-n2cncc21 (configuration not stated) | 10
2 | OCc1ncc2n1-c1ccc(Cl)cc1C(c1ccccc1F)=NC2 [ALPHA-HYDROXY-MIDAZOLAM] | 10
